# Experimental data: patent US20070154393A1, “Bioassay for volatile low molecular weight insecticides and methods of use” (priority 2005, published 2007)
# Test system: metabolically-resistant Hikone-R strain of Drosophila (elevated cytochrome P450)
# Assay type: in vivo
# Conditions: Table 2; Hikone-R, 24 hr
# Experimental: Four Drosophila strains were used, all obtained from the Bloomington Drosophila Stock Center (Indiana University; Bloomington, Ind.). The Canton-S strain was used as the insecticide-susceptible standard. […] Two resistant neurological-mutant strains were also tested. […] Flies were reared in 100-ml vials capped with acetate plugs (Fisher Scientific; Suwanee, Ga.) on a commercial diet (JAZZ-MIX; Fisher Scientific). […] Mixed-sex adults, less than 1-wk old, were used in bioassays.
# All volatile insecticide stocks were prepared at 100 μg/μl in analytical grade acetone. Rather than weigh the highly volatile liquid insecticides (i.e., all compounds except benzothiophene), weight was determined based on the density-volume relationship of each compound. […] The insecticide synergists PBO (piperonyl butoxide) and DEF (SSS-tributyl-phosphoro-trithioate) were obtained from Fluka Chemical Co. (Basel, Switzerland) and Mobay Chemical Co. (Kansas City, Mo.). […] Synergist stocks were prepared at 100 μg/ml in analytical grade acetone.
# Briefly, bioassays took place in 0.5-l glass jars with metal lids. Mixed-sex flies were isolated from lab colonies and placed in 4-ml dram vials in groups of ten, along with a dried piece of laboratory diet. The dram vials were capped with open-top septum caps that were covered with fine mesh (held in place by non-toxic glue). For bioassays, the assembled dram vials were placed into the 0.5-l jars along with a folded filter paper “tent” (Whatman #1; Vineland, N.J.). The filter paper was treated with either an insecticide dilution or acetone, the jar was sealed with the metal lid, and the bioassay proceeded for 24-hr at room temperature. Mortality was scored based on a complete lack of movement by the flies. Four concentrations plus an acetone control were tested for all insecticides. Between five and ten replicates were performed for each concentration range on each strain-insecticide combination. Synergist bioassays were performed with a slight modification. Synergist stocks were applied to dram vials at 100 μl per vial to provide assay concentrations of 10 μg per vial. […] After treatment, vials were held at an angle in a fume hood and rotated ¼-turn each minute until the acetone evaporated. Flies and diet were added as above and held for 1-hr. Assays were initiated, run, and scored as above.
# Probit analysis was performed using PROC PROBIT in the SAS software package (SAS Institute; Cary, N.C.). If control mortality ever exceeded 10% in a given replicate, that replicate was discarded.
row,Molecule,Slope ± Std. Error (probit mortality line)
1,"COP(=O)(OC)OC=C(Cl)Cl [Dichlorvos (DDVP), Dichlorvos, reference compound]",4.64 ± 0.59
2,"O=COCCOC=O [EGDF, ethylene glycol di-formate]",5.02 ± 2.41
3,"O=CO [Formic Acid, reference compound]",3.29 ± 1.02
4,"CN=C=S [Methylisothiocyanate (MITC), Methylisothiocyanate, reference compound]",4.30 ± 0.62

# Same assay, conditions: Table 3; Hikone-R, no synergist, 24 hr
row,Molecule,Slope ± Std. Error (probit mortality line)
1,"O=COCCOC=O [EGDF, ethylene glycol di-formate]",5.02 ± 2.41

# Same assay, conditions: significance at p<0.05, method of Robertson and Preisler
row,Molecule,"response of Hikone-R relative to Canton-S (LC50 ratio Hikone÷Canton, FIG. 5), in words"
1,"O=COCCOC=O [EGDF, ethylene glycol di-formate]",significant resistance
2,"CN=C=S [Methylisothiocyanate (MITC), Methylisothiocyanate, reference compound]",significantly enhanced susceptibility

# Test system: insecticide-susceptible Drosophila melanogaster (Canton-S strain)
# Assay type: in vivo
# Conditions: Canton-S; by 2-hr, lasting through 24-hr, in all bioassay replicates
# Experimental: The insecticide-susceptible Canton-S strain of Drosophila was obtained from the Bloomington Drosophila stock center (Indiana University, Bloomington, Ind.), and used exclusively in all studies. Flies were reared in 100-ml vials capped with acetate plugs (Fisher Scientific; Suwannee, Ga.) on a JAZZ-MIX diet (Fisher) prepared with a 2:1 ratio of water to apple juice. Flies were reared on a 12:12 photocycle at 24° C. and ambient relative humidity. Mixed-sex adults, less than 1-wk old, were used in bioassays.
# Flies were briefly anesthetized in rearing vials with a pulse of CO2 and transferred to a CO2 flowbed (Genesee Scientific; San Diego, Calif.). Using a camel hair brush and a 5×5 cm sheet of rice paper, ten flies were placed into 7.0 ml dram vials. Prior to adding flies, each vial received a 0.5 cm^3 block of rearing diet that had been sufficiently dried on a paper towel to remove excessive moisture. The vials were then capped with open-top septum caps (Fisher) that were covered with fine mesh. The mesh was applied to the septum caps in advance using hot glue; it prevented fly escape but readily permitted gas exchange. The flies were allowed 1-hr to recover from the CO2 anesthesia. After one hour, single vials with flies were placed into 0.5 L glass jars, along with a filter paper tent (see FIG. 1). In a fume hood, filter paper tents were treated with insecticide dilutions or acetone for controls. The jars were then rapidly closed tightly with a metal lid. After 24 hours of exposure, mortality was scored with the aid of a magnifying glass.
# All test compounds and solvents were >99% purity, and were purchased from Sigma-Aldrich Chemical (Milwaukee, Wis.). See Table 1 for a listing of the test compounds and their structures. Insecticide stock solutions were prepared at a standard concentration of 100 μg/μl in analytical grade acetone. For liquid insecticidal compounds, density in mg/μl was used to calculate weight on a per-volume basis. Stock solutions were held at −20° C. in sealed amber vials. In bioassay jars, filter paper tents were treated with stock volumes ranging from 2 to 20 μl, depending on the inherent toxicity of the test compound. These volumes of insecticide stock provided test concentrations of 200 to 2000 μg insecticide per replicate jar. A range of 4-5 concentrations plus a control were tested for each insecticide, and each range was repeated five times over at least three days. Controls received a volume of acetone identical to the highest insecticide volume that was tested (i.e., 10 μl for menthofuran; 20 μl for all other insecticides). Between uses, bioassay jars and lids were washed in a dishwasher, then baked 12-16 hr at 90° C. in a drying oven.
# Probit and regression analyses were performed using the PROC PROBIT and PROC REG procedures, respectively. […] If control mortality ever exceeded 10% in a given replicate, that replicate was discarded.
# Four Drosophila strains were used, all obtained from the Bloomington Drosophila Stock Center (Indiana University; Bloomington, Ind.). The Canton-S strain was used as the insecticide-susceptible standard. The Hikone-R strain is metabolically-resistant with elevated cytochrome P450 levels (Waters et al., 1984; Sundseth et al., 1989; Le Goff et al., 2003; Festucci-Buselli et al., 2005). Hikone-R is resistant to a number of insecticides, including malathion, DDT and neonicotinoids (Sundseth et al., 1989; Daborn et al., 2001). Two resistant neurological-mutant strains were also tested. […] Flies were reared in 100-ml vials capped with acetate plugs (Fisher Scientific; Suwanee, Ga.) on a commercial diet (JAZZ-MIX; Fisher Scientific). Flies were reared on a 12:12 photocycle at 24° C. and 60% relative humidity. Mixed-sex adults, less than 1-wk old, were used in bioassays.
row,Molecule,knockdown [%]
1,"O=COCCOC=O [EGDF, ethylene glycol di-formate]",100

# Same assay, conditions: Table 1; Canton-S, 24 hr exposure, probit analysis
row,Molecule,Slope ± Std. Error (best-fit probit mortality line)
1,methyl acetate,2.86 ± 0.91

# Same assay, conditions: in vivo
Molecule,LC50 (95% CL),mortality elicited by solvent carrier
Cc1oc2ccccc2c1C,1960.0 (1543.0 − 2452.0) μg/jar,–
"CCCCOC(=O)CC [BUTYL propionate, butyl propionate]",2126.0 (1894.0 − 2670.0) μg/jar,–
"CCOC(C)=O [ETHYL acetate, ethyl acetate]",3530.0 (2488.0 − 12723.0) μg/jar,–
"CCCC(=O)OCC [ETHYL butyrate, ethyl butyrate]",2034.0 (ND) μg/jar,–
"CCOC(=O)CC [ETHYL propionate, ethyl propionate]",3395.0 (2439.0 − 9039.0) μg/jar,–
"CCCCC(=O)OCC [ETHYL valerate, ethyl valerate]",2092.0 (1837.0 − 2670.0) μg/jar,–
"CCCCCCOC(C)=O [HEXYL acetate, hexyl acetate]",1666.0 (1582.0 − 1755.0) μg/jar,–
"c1ccc2[nH]ccc2c1 [INDOLE, indole]",2769.0 (2137.0 − 7873.0) μg/jar,–
"CC(=O)OC(C)C [ISO-PROPYL acetate, iso-propyl acetate]",1611.0 (1458.0 − 1782.0) μg/jar,–
"CCCC(=O)OC [METHYL butyrate, methyl butyrate]",2026.0 (1872.0 − 2314.0) μg/jar,–
"CCC(=O)OC [METHYL propionate, methyl propionate]",2391.0 (2076.0 − 3433.0) μg/jar,–
"CCCCC(=O)OC [METHYL valerate, methyl valerate]",2209.0 (1897.0 − 2997.0) μg/jar,–
"CCCCCOC(C)=O [PENTYL acetate, pentyl acetate]",1792.0 (1658.0 − 1987.0) μg/jar,–
"CCCOC(C)=O [PROPYL acetate, propyl acetate]",2056.0 (ND) μg/jar,–
"CCCOC(=O)CCC [PROPYL butyrate, propyl butyrate]",2035.0 (ND) μg/jar,–
"CCCOC(=O)CC [PROPYL propionate, propyl propionate]",1931.0 (ND) μg/jar,–
CCO [ethanol],–,No mortality
CCCCCC [hexane],–,No mortality
"CCCCOC(C)=O [n-BUTYL acetate, n-butyl acetate]",1821.0 (1730.0 − 1930.0) μg/jar,–
"CC(=O)OC(C)(C)C [t-BUTYL acetate, t-butyl acetate]",2134.0 (1943.0 − 2598.0) μg/jar,–
methyl acetate,2268.0 (ND) μg/jar,–

# Same assay, conditions: solvent carriers tested alone under optimized bioassay conditions
row,Molecule,mortality elicited by solvent carrier
1,C[S+](C)[O-] [DMSO],No mortality
2,CC(C)=O [acetone],No mortality
3,CC(C)O [isopropanol],100%
4,CO [methanol],No mortality
5,COCCO [methyl cellosolve],No mortality
